Data: patent EP4772507A1, “AZAINDOLE COMPOUND AND MEDICAL DRUG” (Nippon Shinyaku Co., Ltd., priority 2023, dated 2025)

Key:
[1] = biological target: T1, C-terminal catalytic domain of MALT1 (amino acid residues 329-824) (Homo sapiens, UniProt Q9UDY8); assay: MALT1 protease inhibitory activity (enzyme activity inhibition assay, fluorogenic substrate); type: biochemical; settings: substrate Ac-Leu-Arg-Ser-Arg-AMC 50 µM; 30°C for 2 hours; fluorescence
T1 construct: C-terminal catalytic domain of MALT1 (amino acid residues 329-824)
T1 sequence (Q9UDY8 329-824): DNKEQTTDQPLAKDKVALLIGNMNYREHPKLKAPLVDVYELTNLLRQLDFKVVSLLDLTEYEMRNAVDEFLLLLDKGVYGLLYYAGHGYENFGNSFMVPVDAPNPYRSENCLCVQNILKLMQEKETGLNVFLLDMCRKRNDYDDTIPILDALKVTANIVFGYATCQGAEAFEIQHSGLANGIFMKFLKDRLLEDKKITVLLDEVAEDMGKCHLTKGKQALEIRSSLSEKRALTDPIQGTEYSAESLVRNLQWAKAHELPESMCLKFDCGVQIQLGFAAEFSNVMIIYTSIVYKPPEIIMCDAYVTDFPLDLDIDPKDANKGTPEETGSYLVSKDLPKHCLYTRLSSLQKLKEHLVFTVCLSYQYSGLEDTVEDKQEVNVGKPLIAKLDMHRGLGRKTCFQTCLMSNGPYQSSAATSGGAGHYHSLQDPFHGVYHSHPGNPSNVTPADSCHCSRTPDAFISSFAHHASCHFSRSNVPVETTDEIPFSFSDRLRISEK
Procedure: To evaluate the enzyme inhibitory activity of a test substance against MALT1, an enzyme activity inhibition assay was conducted using the C-terminal catalytic domain of MALT1 (amino acid residues 329-824).
A test substance was prepared at a concentration of 10 mM in dimethyl sulfoxide (DMSO) and further diluted with DMSO to obtain final concentrations of 1000, 100, 10, 1, and 0.1 µM. The solutions were further diluted 25-fold with an assay buffer to prepare final test substance solutions. The composition of the assay buffer was 200 mM Tris/HCl HEPES (pH 7.5), 0.8 M Na citrate, 100 µM DTT, and 0.05% CHAPS.
The test substance solution was added to a 384-well black plate (#6007270, PerkinElmer) in an amount of 5 µL per well (n = 2; final concentrations of 10000, 1000, 100, 10, 1, and 0.1 nM), followed by the addition of 10 µL of MALT1 enzyme and finally 5 µL of a substrate solution (Ac-Leu-Arg-Ser-Arg-AMC, Peptide Institute, Inc.; final concentration in the reaction mixture: 50 µM), and after stirring, the mixture was allowed to react at 30°C for 2 hours. Fluorescence (excitation: 380 nm, emission: 460 nm) was detected using a microplate reader (EnVision, PerkinElmer).
Using the measurement data, non-linear regression analysis based on a 2-parameter logistic model was performed with Spotfire (PerkinElmer) to calculate IC50.

[2] = tested on: HEK293/API2-MALT1/NF-κB reporter cells; assay: Inhibition of reporter activity in HEK293/API2-MALT1/NF-κB reporter cells; type: cell-based; settings: Homo sapiens, 24 hours with test substance, One-glo luminescence
Procedure: The API2-MALT1 fusion protein, expressed in MALT lymphoma, is known to constitutively activate the NF-κB pathway. To evaluate the inhibitory effect of the test substance on the NF-κB pathway in cells, a reporter activity inhibition test was conducted using HEK293/API2-MALT1/NF-κB reporter cells.
(§1) The test substance was prepared at a concentration of 10 mM in dimethyl sulfoxide (DMSO) and further diluted with DMSO to each of concentrations of 1000, 300, 100, and 10 µM. The solutions were further diluted 100-fold with DMEM medium containing 10% FBS to prepare test substance solutions.
HEK293/API2-MALT1/NF-κB reporter cells and 293T/CMV reporter cells (used as a negative control) were cultured in DMEM medium containing 10% FBS. Into a 384-well plate (#781080, Greiner), 6,000 cells were seeded in 30 µL per well, and after culturing for 24 hours, 3.3 µL of the adjusted test substance solution was added thereto (final concentrations: 10,000, 1,000, 100, and 10 nM). After culturing for 24 hours at 37°C in a 5% CO2 incubator, 33 µL of One-glo (Promega) was added to each well. After a 5-minute incubation at room temperature, luminescence was detected using a microplate reader (EnVision, PerkinElmer).
Using the measurement data, non-linear regression analysis was performed with the SAS system (SAS Institute Inc.) to estimate IC50.

[3] = tested on: OCI-Ly3 cell lines; assay: Proliferation inhibition test, ABC-DLBCL cell line OCI-Ly3; type: cell-based; settings: Homo sapiens; OCI-Ly3 (ABC-DLBCL, NF-κB pathway-dependent); 96 hours; Cell Counting Kit-8; read-out: Proliferation inhibitory activity against OCI-Ly3 IC50
Procedure: (§2) In ABC-DLBCL cell lines, the NF-κB pathway is constitutively activated due to mutations in the B-cell receptor pathway. To evaluate the proliferation inhibitory activity associated with the MALT1 inhibitory activity of the test substance, a proliferation inhibition test was conducted using ABC-DLBCL cell lines.
as §1, with “3,000, 1,000,” for “1000,”, “100, 30,” for “100,”, “IMDM” for “DMEM”
(§3) OCI-Ly3 cell lines (ABC-DLBCL, NF-κB pathway-dependent) were cultured in IMDM containing 10% FBS, and SU-DHL-4 cell lines (GCB-DLBCL, NF-κB pathway-independent, used as a negative control) were cultured in RPMI-1640 containing 10% FBS. Into a 96-well plate, 2,000 cells of the OCI-Ly3 cell line and 4,000 cells of the SU-DHL-4 cell line were seeded in 100 µL per well, and 11 µL of the adjusted test substance solution was added thereto (final concentrations: 10,000, 3,000, 1,000, 300, 100, 30, and 10 nM). After 96 hours of incubation at 37°C in a 5% CO2 incubator, 10 µL of Cell Counting Kit-8 (Dojindo Laboratories) was added to each well. After 4 hours of incubation at 37°C, absorbance at 450 nm was detected using a microplate reader (EnVision, PerkinElmer).
(§4) Using the measurement data, non-linear regression analysis based on a 2-parameter logistic model was performed with Spotfire (PerkinElmer) to estimate IC50 values.

[4] = tested on: SU-DHL-4 cell lines; assay: Proliferation inhibition test, GCB-DLBCL cell line SU-DHL-4 (negative control line); type: cell-based; settings: Homo sapiens; SU-DHL-4 (GCB-DLBCL, NF-κB pathway-independent, negative control); 96 hours; Cell Counting Kit-8; read-out: Proliferation inhibitory activity against SU-DHL-4 IC50
Procedure: as §2
as §1, with “3,000, 1,000,” for “1000,”, “100, 30,” for “100,”, “IMDM” for “DMEM”
as §3, §4

**Q.** What does the source list for C[C@@H]1C[C@H](C(=O)c2cn(C)c3nc(-n4nccn4)c(Cl)cc23)CCN1c1ncncc1Br (racemic) [Example 33, [(2RS,4RS)-1-(5-bromopyrimidin-4-yl)-2-methylpiperidin-4-yl][5-chloro-1-methyl-6-(2H-1,2,3-triazol-2-yl)-1H-pyrrolo[2,3-b]pyridin-3-yl]methanone]?
**A.** IC50 [1]: 10 nM; IC50 [2]: 640 nM; IC50 [3]: 790 nM; IC50 [4]: > 10000 nM

**Q.** Which IC50 [1] does the source give for C[C@@H]1C[C@H](C(=O)c2cn(C)c3nc(-n4nccn4)c(Cl)cc23)CCN1c1ccc(F)cc1N (racemic) [Example 34, [(2RS,4RS)-1-(2-amino-4-fluorophenyl)-2-methylpiperidin-4-yl][5-chloro-1-methyl-6-(2H-1,2,3-triazol-2-yl)-1H-pyrrolo[2,3-b]pyridin-3-yl]methanone] here?
**A.** 13 nM

**Q.** And the IC50 [2]?
**A.** 200 nM

**Q.** What about the IC50 [3] of the same compound?
**A.** 520 nM

**Q.** What about the IC50 [4] of the same compound?
**A.** > 10000 nM

**Q.** For C[C@@H]1C[C@H](C(=O)c2c[nH]c3nc(C(=O)N4CCNCC4)c(Cl)cc23)CCN1c1ncc(F)cc1Cl (racemic) [Example 35, {5-chloro-3-[(2RS,4RS)-1-(3-chloro-5-fluoropyridin-2-yl)-2-methylpiperidine-4-carbonyl]-1H-pyrrolo[2,3-b]pyridin-6-yl}(piperazin-1-yl)methanone], which IC50 [1] is on record?
**A.** 37 nM

**Q.** What about the IC50 [2] of the same compound?
**A.** 390 nM

**Q.** And the IC50 [3]?
**A.** 630 nM

**Q.** What about the IC50 [4] of the same compound?
**A.** 9500 nM

**Q.** Which IC50 [1] does the source give for C[C@@H]1C[C@H](C(=O)c2cn(C)c3nc(S(=O)(=O)N4CCNCC4)c(Cl)cc23)CCN1c1ncc(F)cc1Cl (racemic) [Example 36, [(2RS,4RS)-1-(3-chloro-5-fluoropyridin-2-yl)-2-methylpiperidin-4-yl][5-chloro-1-methyl-6-(piperazin-1-ylsulfonyl)-1H-pyrrolo[2,3-b]pyridin-3-yl]methanone] here?
**A.** 20 nM

**Q.** What about the IC50 [2] of the same compound?
**A.** 280 nM

**Q.** And the IC50 [3]?
**A.** 410 nM

**Q.** And the IC50 [4]?
**A.** 2500 nM

**Q.** Which IC50 [2] does the source give for C[C@@H]1CC(C(=O)c2cn(CCO)c3nc(-n4nccn4)c(Cl)cc23)C[C@@H](C)N1c1ncc(F)cc1I (stereo partly drawn) [Example 4, [5-chloro-1-(2-hydroxyethyl)-6-(2H-1,2,3-triazol-2-yl)-1H-pyrrolo[2,3-b]pyridin-3-yl][(2R,6R)-1-(5-fluoro-3-iodopyridin-2-yl)-2,6-dimethylpiperidin-4-yl]methanone] here?
**A.** 230 nM

**Q.** And the IC50 [3]?
**A.** 450 nM

**Q.** What about the IC50 [4] of the same compound?
**A.** 7200 nM

**Q.** How did the IC50 [1] turn out when CCn1cc(C(=O)c2cnn(-c3cncc4c(F)cccc34)c2C(F)(F)F)c2cc(Cl)c(-c3ncccn3)nc21 [Example 13, [5-chloro-1-ethyl-6-(pyrimidin-2-yl)-1H-pyrrolo[2,3-b]pyridin-3-yl][1-(8-fluoroisoquinolin-4-yl)-5-(trifluoromethyl)-1H-pyrazol-4-yl]methanone] was run?
**A.** 15 nM

**Q.** And the IC50 [2]?
**A.** 62 nM

**Q.** And the IC50 [3]?
**A.** 110 nM

**Q.** And the IC50 [4]?
**A.** 2000 nM

**Q.** C[C@@H]1CC(C(=O)c2cn(CCCO)c3nc(-n4nccn4)c(Cl)cc23)C[C@@H](C)N1c1ncc(F)cc1I (stereo partly drawn) [Example 15, [5-chloro-1-(3-hydroxypropyl)-6-(2H-1,2,3-triazol-2-yl)-1H-pyrrolo[2,3-b]pyridin-3-yl][(2R,6R)-1-(5-fluoro-3-iodopyridin-2-yl)-2,6-dimethylpiperidin-4-yl]methanone] was tested. Which IC50 [2] did it give?
**A.** 170 nM

**Q.** What about the IC50 [3] of the same compound?
**A.** 720 nM

**Q.** What about the IC50 [4] of the same compound?
**A.** 8400 nM

**Q.** What does the source list for C[C@@H]1CC(C(=O)c2cn(C3CCS(=O)(=O)CC3)c3nc(-n4nccn4)c(Cl)cc23)C[C@@H](C)N1c1ncc(F)cc1I (stereo partly drawn) [Example 19, [5-chloro-1-(1,1-dioxotetrahydro-2H-thiopyran-4-yl)-6-(2H-1,2,3-triazol-2-yl)-1H-pyrrolo[2,3-b]pyridin-3-yl][(2R,6R)-1-(5-fluoro-3-iodopyridin-2-yl)-2,6-dimethylpiperidin-4-yl]methanone]?
**A.** IC50 [1]: 92 nM; IC50 [2]: 130 nM; IC50 [3]: 240 nM; IC50 [4]: 2500 nM

**Q.** With C[C@@H]1CC(C(=O)c2cn(C3CCOCC3)c3nc(-n4nccn4)c(Cl)cc23)C[C@@H](C)N1c1ncc(F)cc1I (stereo partly drawn) [Example 20, [5-chloro-1-(oxan-4-yl)-6-(2H-1,2,3-triazol-2-yl)-1H-pyrrolo[2,3-b]pyridin-3-yl][(2R,6R)-1-(5-fluoro-3-iodopyridin-2-yl)-2,6-dimethylpiperidin-4-yl]methanone] as the compound, how does the IC50 [1] read?
**A.** 110 nM

**Q.** What about the IC50 [2] of the same compound?
**A.** 240 nM

**Q.** What about the IC50 [3] of the same compound?
**A.** 480 nM

**Q.** What about the IC50 [4] of the same compound?
**A.** 6400 nM

**Q.** C[C@@H]1CC(C(=O)c2cn([C@H]3CCOC3)c3nc(-n4nccn4)c(Cl)cc23)C[C@@H](C)N1c1ncc(F)cc1I (stereo partly drawn) [Example 21, {5-chloro-1-[(3S)-oxolan-3-yl]-6-(2H-1,2,3-triazol-2-yl)-1H-pyrrolo[2,3-b]pyridin-3-yl}[(2R,6R)-1-(5-fluoro-3-iodopyridin-2-yl)-2,6-dimethylpiperidin-4-yl]methanone] was tested. Which IC50 [1] did it give?
**A.** 44 nM

**Q.** What about the IC50 [2] of the same compound?
**A.** 310 nM

**Q.** What about the IC50 [3] of the same compound?
**A.** 540 nM

**Q.** What about the IC50 [4] of the same compound?
**A.** 9000 nM

**Q.** With C[C@@H]1CC(C(=O)c2cn([C@@H]3CCOC3)c3nc(-n4nccn4)c(Cl)cc23)C[C@@H](C)N1c1ncc(F)cc1I (stereo partly drawn) [Example 22, {5-chloro-1-[(3R)-oxolan-3-yl]-6-(2H-1,2,3-triazol-2-yl)-1H-pyrrolo[2,3-b]pyridin-3-yl}[(2R,6R)-1-(5-fluoro-3-iodopyridin-2-yl)-2,6-dimethylpiperidin-4-yl]methanone] as the compound, how does the IC50 [1] read?
**A.** 70 nM

**Q.** What about the IC50 [2] of the same compound?
**A.** 280 nM

**Q.** What about the IC50 [3] of the same compound?
**A.** 530 nM

**Q.** What about the IC50 [4] of the same compound?
**A.** 8900 nM

**Q.** Which IC50 [1] does the source give for O=C(c1cnn(-c2cccc3c(F)cccc23)c1C(F)(F)F)c1c[nH]c2nc(-n3nccn3)c(Cl)cc12 [Example 23, [5-chloro-6-(2H-1,2,3-triazol-2-yl)-1H-pyrrolo[2,3-b]pyridin-3-yl][1-(5-fluoronaphthalen-1-yl)-5-(trifluoromethyl)-1H-pyrazol-4-yl]methanone] here?
**A.** 19 nM

**Q.** And the IC50 [2]?
**A.** 190 nM

**Q.** And the IC50 [3]?
**A.** 870 nM

**Q.** And the IC50 [4]?
**A.** 9500 nM
